The values below come from patent publication US12503452B2 (Curza Global, LLC, priority 2019, dated 2025).

Structures are written as SMILES. Counter-ions that a name gives are not always drawn. Like-named read-outs stand apart in the source and are kept apart here. Some results are limits rather than exact numbers.

In assay [1] the test system is E. coli S30 extract (bacterial protein synthesis). The assay can be described thus: E. coli S30 extract coupled transcription-translation luciferase assay (inhibition of bacterial protein synthesis). To be noted: class by IC50 or % inhibition @ 1 μM, read-out: S30 IC50 (μM/% inhib.). It is filed as biochemical. The gist of the method:
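Luminescent read-out of luciferase made from pBESTluc DNA by E. coli S30 extract after 1 h at 37 °C with compound in an 8-point 2-fold series. Background came from no-DNA reactions. Percent inhibition was calculated against water-only controls.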

Assay [2] has as its target Rabbit Reticulocyte Lysate (eukaryotic protein synthesis). In words: Rabbit reticulocyte lysate luciferase assay (inhibition of eukaryotic protein synthesis). The format is biochemical. As to conditions: class by IC50 or % inhibition @ 1 μM, read-out: Rabbit reticulocyte IC50 (μM/% inhib.). An outline of the steps: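 Compounds were tested in 8-point 2-fold dilution series for blocking luciferase synthesis in nuclease-treated rabbit reticulocyte lysate (30° C., 90 minutes). Luminescence read-out, corrected by no-RNA background, was expressed as % inhibition against water-only reactions.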

The test system of another assay is A. baumannii (Ab). In words: Broth microdilution minimum inhibitory concentration (MIC). To be noted: Acinetobacter baumannii, read-out: Ab + bicarb MIC. The format is cell-based. An outline of the steps: (§1)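 Two-fold compound series, 8 points in triplicate; medium CAMHB ± NaHCO3 (6.25 or 25 mM final) or ± 0–50% heat-inactivated human serum; inoculum 5×10^4 CFU/well; growth-method 0.5 McFarland suspensions; modified CLSI M07-A9.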
(In broth dilution the organism is exposed to a series of concentrations in liquid medium.)

For the next assay, the system named is E. coli (Ec). Described as above. It is filed as cell-based. To be noted: Escherichia coli, read-out: E. coli + bicarb MIC. The gist of the method:
as §1

In another assay the test system is E. faecalis (Ef). The description is as above. The format is cell-based. To be noted: Enterococcus faecalis, read-out: Ef + bicarb MIC. The gist of the method:
as §1

The next assay has as its system P. aeruginosa (Pa). The description is as above. As to conditions: Pseudomonas aeruginosa, read-out: Pa MIC + bicarb. It is filed as cell-based. An outline of the steps: as §1
For a further assay, the system named is S. aureus (Sa). Described as above. The format is cell-based. As to conditions: Staphylococcus aureus, read-out: Sa + bicarb MIC. The gist of the method:
as §1

The mark [3] stands for this setting: A. baumannii, growth medium with sodium bicarbonate.
Setting [4] is: E. coli, growth medium with sodium bicarbonate.
Setting [5] is: E. faecalis, growth medium with sodium bicarbonate.
Where [6] appears, read: P. aeruginosa, growth medium with sodium bicarbonate.
Setting [7] is: S. aureus, growth medium with sodium bicarbonate.

With `Cc1cc(-n2ccc(NC(=O)N3CCN(C(=O)C(C)(C)N)CC3)nc2=O)ccc1CNC1CCC(N)CC1` (stereo not shown) [Compound 283], the IC50 in assay [1] is less than 0.5 µM; in assay [2] it was greater than 1 µM. Moreover, the minimal inhibitory concentration (MIC) in the assay with A. baumannii (Ab) (setting [3]) is greater than 32 µg/mL; in the assay on E. coli (Ec) (setting [4]) it was less than 8 µg/mL; in the assay with E. faecalis (Ef) (setting [5]), less than 8 µg/mL; in the assay with P. aeruginosa (Pa) (setting [6]), greater than 32 µg/mL; in the assay with S. aureus (Sa) (setting [7]), less than 8 µg/mL.
Turning to `Cc1cc(-n2ccc(NC(=O)N3CCN(C(=O)C(C)(C)N)CC3)nc2=O)ccc1CN(C)C1CCC(N)CC1` (stereo not shown) [Compound 284], the IC50 in assay [1] was less than 0.5 µM; in assay [2], greater than 1 µM. The MIC is less than 8 µg/mL with A. baumannii (Ab) (setting [3]); less than 8 µg/mL in the assay with E. coli (Ec) (setting [4]); less than 8 µg/mL with E. faecalis (Ef) (setting [5]); 8 to 32 µg/mL in the assay on P. aeruginosa (Pa) (setting [6]); less than 8 µg/mL in the assay on S. aureus (Sa) (setting [7]).
Turning to `CCN(Cc1ccc(-n2ccc(NC(=O)N3CCN(C(=O)C(C)(C)N)CC3)nc2=O)cc1C)C1CCC(N)CC1` (stereo not shown) [Compound 285], the figures for the IC50 in assay [1] and in assay [2] were less than 0.5 µM and greater than 1 µM, respectively. The MIC was less than 8 µg/mL in the assay with A. baumannii (Ab) (setting [3]); less than 8 µg/mL with E. coli (Ec) (setting [4]); less than 8 µg/mL in the assay on E. faecalis (Ef) (setting [5]); 8 to 32 µg/mL in the assay with P. aeruginosa (Pa) (setting [6]); less than 8 µg/mL in the assay on S. aureus (Sa) (setting [7]).
For the molecule `CN(Cc1ccc(-n2ccc(NC(=O)N3CCN(C(=O)[C@@](C)(N)CO)CC3)nc2=O)cc1)C1CCC(N)CC1` (stereo partly shown) [Compound 286], the IC50 in assay [1] was less than 0.5 µM; in assay [2], greater than 1 µM. Further, the MIC is greater than 32 µg/mL in the assay on A. baumannii (Ab) (setting [3]); less than 8 µg/mL in the assay with E. coli (Ec) (setting [4]); less than 8 µg/mL with E. faecalis (Ef) (setting [5]); greater than 32 µg/mL in the assay with P. aeruginosa (Pa) (setting [6]); less than 8 µg/mL in the assay with S. aureus (Sa) (setting [7]).
Turning to `CCN(Cc1ccc(-n2ccc(NC(=O)N3CCN(C(=O)[C@@](C)(N)CO)CC3)nc2=O)cc1)C1CCC(N)CC1` (stereo partly shown) [Compound 287], the results for the IC50 in assay [1] and in assay [2] were less than 0.5 µM and greater than 1 µM, respectively. The minimum inhibitory concentration (MIC) with A. baumannii (Ab) (setting [3]) was greater than 32 µg/mL; in the assay with E. coli (Ec) (setting [4]) it was less than 8 µg/mL; with E. faecalis (Ef) (setting [5]), less than 8 µg/mL; in the assay with P. aeruginosa (Pa) (setting [6]), 8 to 32 µg/mL; in the assay with S. aureus (Sa) (setting [7]), less than 8 µg/mL.
On to `C[C@](N)(CO)C(=O)N1CCN(C(=O)Nc2ccn(-c3ccc(CNC4CCC(N)CC4)cc3)c(=O)n2)CC1` (stereo partly shown) [Compound 288], for which the IC50 in assay [1] is less than 0.5 µM; in assay [2], greater than 1 µM. Besides, the minimum inhibitory concentration (MIC) is greater than 32 µg/mL with A. baumannii (Ab) (setting [3]); less than 8 µg/mL in the assay with E. coli (Ec) (setting [4]); less than 8 µg/mL in the assay on E. faecalis (Ef) (setting [5]); greater than 32 µg/mL in the assay with P. aeruginosa (Pa) (setting [6]); less than 8 µg/mL in the assay on S. aureus (Sa) (setting [7]).
For `NC1CCN(Cc2ccc(-n3ccc(NC(=O)N4CC5(CC(N)C5)C4)nc3=O)cc2)CC1` [Compound 289], the IC50 is 0.5 to 1 µM in assay [1] and greater than 1 µM in assay [2]. In addition, the MIC in the assay on A. baumannii (Ab) (setting [3]) was greater than 32 µg/mL; in the assay on E. coli (Ec) (setting [4]), less than 8 µg/mL; with E. faecalis (Ef) (setting [5]), greater than 32 µg/mL; with P. aeruginosa (Pa) (setting [6]), greater than 32 µg/mL; in the assay on S. aureus (Sa) (setting [7]), less than 8 µg/mL.
In the case of `CC(CN1CCC[C@H](N)CC1)c1ccc(-n2ccc(NC(=O)N3CCN(C(=O)C(C)(C)N)CC3)nc2=O)cc1` (stereo partly shown) [Compound 290], the IC50 in assay [1] is 0.5 to 1 µM; in assay [2], greater than 1 µM. Further, the minimal inhibitory concentration (MIC) is less than 8 µg/mL in the assay with A. baumannii (Ab) (setting [3]); less than 8 µg/mL in the assay on E. coli (Ec) (setting [4]); less than 8 µg/mL in the assay with E. faecalis (Ef) (setting [5]); greater than 32 µg/mL in the assay with P. aeruginosa (Pa) (setting [6]); less than 8 µg/mL in the assay with S. aureus (Sa) (setting [7]).
Turning to `CC(C)(N)C(N1CCN(C(=O)Nc2ccn(-c3ccc(CN4CCC(N)CC4)cc3)c(=O)n2)CC1)C(F)(F)F` (stereo not shown) [Compound 291, hydrochloride salt], the IC50 in assay [1] and in assay [2] was greater than 1 µM in each case. Further, the minimal inhibitory concentration (MIC) in the assay on A. baumannii (Ab) was 8 to 32 µg/mL; with E. coli (Ec) it was 8 to 32 µg/mL; in the assay on E. faecalis (Ef) it was 8 to 32 µg/mL; in the assay on P. aeruginosa (Pa), greater than 32 µg/mL; with S. aureus (Sa) it was less than 8 µg/mL.
`Cc1cc(NC(=O)N2CCN(C(=O)C(C)(C)N)CC2)nc(=O)n1-c1ccc(CN2CCC(N)CC2)cc1` [Compound 292, hydrochloride salt]: the IC50 in assay [1] and in assay [2] was greater than 1 µM in each case. The minimum inhibitory concentration (MIC) in the assay on A. baumannii (Ab), with E. coli (Ec), in the assay with E. faecalis (Ef), with P. aeruginosa (Pa) and with S. aureus (Sa) was greater than 32 µg/mL in each case.

In general, MIC refers to the lowest concentration found to suppress growth.
